Earlier results in US20110144117A1, “Pharmaceutical Dosage Form Containing Tetrahydrobiopterin” (OrPha Swiss GmbH, priority 2008, published 2011).

Experiments:
[1] = system: patients exhibiting mutations in the PAH gene; details: dietary supplementation, patients with mutations in the PAH gene (Kure et al.)
[2] = in pure water
[3] = system: patient with a dihydrobiopterin deficiency; details: single dose, patient with dihydrobiopterin deficiency (Niederwieser et al.)

solubility [2] [g/100 g H2O]	SMILES	phenylalanine blood plasma concentration [1]	symptoms of hyperphenylalaninemia [3]
–	CC(O)C(O)C1CNc2nc(N)[nH]c(=O)c2N1 (stereo not drawn) [tetrahydrobiopterin, 5,6,7,8-tetrahydro-biopterin]	reduces	–
0.17	C[C@H](O)C(=O)C1=Nc2c(nc(N)[nH]c2=O)NC1 [L-sepiapterin]	–	transiently disappeared
